Laboratory results from patent US12377106B2, “Piperidinylpyrazine-carboxamide compounds for treating and preventing cancer and for degrading BTK” (NURIX THERAPEUTICS, INC., priority 2021, dated 2025).
Entries after “also recorded” stand apart in the source; their conditions may differ.

How the values were obtained:
BTK = experiment: Flow cytometry assay for BTK degradation in patient circulating B cells (CD19+CD3-), Phase 1a/1b trial; type: in vivo, human
Method: Compound 149 was administered to human patients in a Phase 1a/lb trial investigating safety and tolerability in relapsed and refractory B cell malignancies. Compound 149 was administered as a once daily oral dose first in an accelerated Phase 1a dose escalation starting at 100 mg on Day 1. The first dose levels are explored in a single patient cohort until a grade 2 adverse event has been observed. Thereafter, a traditional 3+3 escalation design is used. This 100 mg starting dose was predicted to provide similar exposure as that observed in non-human primate studies. Once a dose is selected based on all safety, efficacy, pharmacokinetic, and pharmacodynamic data available, the trial will expand in up to five expansion cohorts.
[…] of Bruton's tyrosine kinase were measured by flow cytometry in circulating B cells, including disease cells and provided in FIG. 2. This mean fluorescence intensity directly correlates with the levels of BTK protein observed in a Western blot. […] The patient's BTK levels start at different levels yet, the treatment results in the same level of degradation by Day 15, which is the first measurement after steady state concentration is achieved.
The 100 mg patient achieved greater than 80% BTK degradation at steady state. All patients at the 200 mg dose level achieved greater than 90% degradation at steady state.
The data is summarized in Table 3 below which provides the average percent BTK degradation during the last 2 weeks of the first cycle (namely Days 15, 22, and 29). In Cohort 2 (200 mg), well above 90% of BTK degradation was achieved during the steady state.
Following informed consent, peripheral blood was obtained from all patients for baseline and post Compound 149 therapy assessment of BTK and Ikaros degradation. Patient blood (5 mL) was drawn and immediately fixed in a 5 mL CytoChex™ BCT tube and stored at ambient temperature until assessment via flow cytometry. Blood samples were analyzed within 3 days post sample collection at Precision for Medicine. Additional blood was also drawn into 8 mL BD Vacutainer® CPT™ Cell Preparation Tube with Sodium Citrate. Peripheral blood mononuclear cells (PBMCs) were processed, and viability frozen according to manufacturer's protocol.
For flow staining, 1 mL blood was treated with 1×BD PharmLyse to facilitate red blood cell lysing. Remaining leukocytes were washed with staining buffer (SB) containing Dulbecco's Phosphate Buffered Saline (DPBS) without Calcium or Magnesium, 1% bovine serum albumin (BSA), 10 mM HEPES, 1 mM EDTA, and 0.01% sodium azide. Cell pellet was stained with fluorophore-conjugated cell surface markers antibodies against CD45, CD3, CD4, CD8, CD14, CD16, CD19 and CD56 prepared in BD Brilliant Stain buffer for 25 minutes at room temperature.
Following cell surface staining, cells were washed twice with SB and then fixed and permeabilized for one hour at room temperature with eBioscience FoxP3/Transcription Factor Staining Buffer set according to the manufacturer's instructions. Washed cells were then stained with unconjugated BTK antibody made in 1× Permeabilization buffer) for 30 minutes. This was followed by another 30-minute incubation with anti-rabbit Alexa488 secondary antibody also prepared in 1× Permeabilization buffer for BTK detection. After incubation, the cells were washed twice with 1× Permeabilization Buffer and then resuspended in SB. Control samples containing fluorescence minus two markers (FM2) were used for background controls and were stained for all surface markers in the panel excluding BTK.
The samples were transferred to BD TruCount tubes before acquisition on a BD LSR Fortessa using predetermined BD FACS Diva software (v8.0) application settings. Data analysis was performed using FlowJo software (v10).
Single lymphocytes were gated for B cells (CD19+CD3−), and the geometric mean fluorescence intensity (MFI) of BTK was calculated. The MFI of B cells in FM2 control was used to quantify background staining. […]

Aiolos = target: T1, Aiolos (Homo sapiens, UniProt Q96SW2+Q9UKT9); experiment: Aiolos degradation in the patient; type: in vivo; conditions: DLBCL patient, 300 mg
T1 construct: Compound 149 also degraded Ikaros and Aiolos; endogenous in cells
Method: (§1) The patient's response was checked at 8 weeks and 16 weeks. […] Gradual BTK degradation was observed until day 8 day of receiving the 300 mg dose of Compound 149, wherein the maximum BTK degradation was achieved on the 8th day. Consistent with its design, Compound 149 also degraded Ikaros and Aiolos which is responsible for the compound's immunomodulatory activity. […] In the 16-week assessment image, maximum standard uptake value (Max SUV) reduced from 17.6 at screening to 2.5 at the 16-week assessment time with the Deauville five-point scale (5PS; Barrington et al., 2010, Eur J Nucl Med Mol Imaging 37 (10): 1824-33) reducing from 5 to 2.

[1] = tested on: patient with non-GCB (ABC subtype) DLBCL; experiment: Response of a patient with non-GCB (ABC subtype) DLBCL (Lugano criteria, FDG-PET CT scan); type: in vivo, human; conditions: 300 mg
Method: A heavily pre-treated patient with non-GCB (ABC subtype) DLBCL was enrolled in Compound 149 phase 1 dose-escalation. The patient was treated at a single dosage level of Compound 149: […] (300 mg) for a period of 5 months and ongoing. The objective of the study was to assess safety and tolerability, to identify maximum tolerated dose, and to evaluate PK/PD.
as §1

[2] = tested on: lymphoma cells harboring BTK-C481S mutation; experiment: Killing of lymphoma cells harboring BTK-C481S mutation (FIG. 6); type: cell-based
[3] = average of patients 1, 2, 3, 4, 6 (100 mg and 200 mg)
[4] = average of patients with data (100 mg and 200 mg)
[5] = patient 1 (CLL), 100 mg once daily oral
[6] = patient 2 (CLL), 200 mg once daily oral
[7] = patient 3 (MCL), 200 mg once daily oral
[8] = patient 4 (WM), 200 mg once daily oral
[9] = patient 6 (SLL), 200 mg once daily oral

T1 sequence (Q9UKT9 whole entry): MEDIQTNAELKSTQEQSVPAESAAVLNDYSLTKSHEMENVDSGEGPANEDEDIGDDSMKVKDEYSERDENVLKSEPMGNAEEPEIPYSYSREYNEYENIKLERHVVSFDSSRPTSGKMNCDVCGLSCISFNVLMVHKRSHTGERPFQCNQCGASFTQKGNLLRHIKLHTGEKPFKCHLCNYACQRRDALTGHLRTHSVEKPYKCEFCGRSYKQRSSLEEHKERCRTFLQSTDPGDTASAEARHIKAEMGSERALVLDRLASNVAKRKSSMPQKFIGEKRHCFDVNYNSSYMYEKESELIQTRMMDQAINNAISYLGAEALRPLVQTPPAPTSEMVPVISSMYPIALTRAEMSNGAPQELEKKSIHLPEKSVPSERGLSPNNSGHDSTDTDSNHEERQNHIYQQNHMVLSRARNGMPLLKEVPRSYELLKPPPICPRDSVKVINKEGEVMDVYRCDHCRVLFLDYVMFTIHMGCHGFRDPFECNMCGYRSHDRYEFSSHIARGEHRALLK
T1 sequence (Q96SW2 whole entry): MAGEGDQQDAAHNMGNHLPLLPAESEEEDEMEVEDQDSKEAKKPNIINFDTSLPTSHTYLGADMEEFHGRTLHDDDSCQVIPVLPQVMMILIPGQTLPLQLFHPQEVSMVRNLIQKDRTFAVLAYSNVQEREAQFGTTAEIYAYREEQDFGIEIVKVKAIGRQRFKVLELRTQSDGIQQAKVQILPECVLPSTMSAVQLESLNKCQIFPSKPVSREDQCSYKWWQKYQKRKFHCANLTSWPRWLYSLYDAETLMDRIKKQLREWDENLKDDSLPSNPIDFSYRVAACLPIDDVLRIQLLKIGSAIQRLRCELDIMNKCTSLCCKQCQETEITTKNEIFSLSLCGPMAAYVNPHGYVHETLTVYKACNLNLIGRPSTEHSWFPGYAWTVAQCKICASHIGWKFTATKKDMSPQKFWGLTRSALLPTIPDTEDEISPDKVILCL
T1 sequence (Q16531 whole entry partner): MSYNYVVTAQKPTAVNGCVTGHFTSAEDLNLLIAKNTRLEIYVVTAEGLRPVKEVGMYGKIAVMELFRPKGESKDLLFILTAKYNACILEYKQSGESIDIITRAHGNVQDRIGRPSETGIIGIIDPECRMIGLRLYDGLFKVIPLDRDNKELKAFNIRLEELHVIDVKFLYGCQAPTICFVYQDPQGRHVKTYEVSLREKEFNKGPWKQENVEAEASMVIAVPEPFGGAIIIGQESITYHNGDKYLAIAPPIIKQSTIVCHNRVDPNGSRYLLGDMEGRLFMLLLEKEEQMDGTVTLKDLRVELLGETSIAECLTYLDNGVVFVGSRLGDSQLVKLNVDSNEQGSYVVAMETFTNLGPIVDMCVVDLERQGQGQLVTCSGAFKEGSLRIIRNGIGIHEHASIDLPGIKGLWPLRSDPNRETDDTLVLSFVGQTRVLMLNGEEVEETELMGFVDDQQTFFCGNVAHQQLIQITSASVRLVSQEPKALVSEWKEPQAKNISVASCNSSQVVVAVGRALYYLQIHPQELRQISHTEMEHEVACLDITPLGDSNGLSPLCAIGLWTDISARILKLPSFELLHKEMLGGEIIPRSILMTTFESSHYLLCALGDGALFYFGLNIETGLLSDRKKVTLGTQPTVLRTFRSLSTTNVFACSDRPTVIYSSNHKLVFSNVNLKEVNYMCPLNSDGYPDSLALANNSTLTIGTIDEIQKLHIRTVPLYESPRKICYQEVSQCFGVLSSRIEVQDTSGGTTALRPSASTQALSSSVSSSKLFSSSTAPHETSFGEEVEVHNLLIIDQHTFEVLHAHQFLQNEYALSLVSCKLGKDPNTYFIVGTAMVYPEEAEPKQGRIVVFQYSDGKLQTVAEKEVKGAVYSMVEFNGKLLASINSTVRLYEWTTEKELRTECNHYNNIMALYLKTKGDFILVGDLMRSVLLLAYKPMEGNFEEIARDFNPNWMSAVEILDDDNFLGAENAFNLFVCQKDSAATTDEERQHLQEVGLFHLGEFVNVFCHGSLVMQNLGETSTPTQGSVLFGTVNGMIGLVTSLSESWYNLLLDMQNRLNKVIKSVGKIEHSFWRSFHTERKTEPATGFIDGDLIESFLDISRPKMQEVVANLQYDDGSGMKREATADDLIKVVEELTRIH

`NC(=O)c1ncc(N2CCCCC2)nc1Nc1ccc(C2CCN(C[C@@H]3CCN(c4ccc5c(c4)C(=O)N(C4CCC(=O)NC4=O)C5=O)C3)CC2)cc1` (some centres unmarked) [Compound 149] was tested, and the “day on which maximum BTK degradation was achieved” value (BTK; DLBCL patient, 300 mg, BTK MFI in CD19+ B cells, FIG. 8) was 8 days, the “duration of BTK degradation” value (BTK; DLBCL patient, 300 mg, FIG. 8) was “sustained through day 29” and the “duration of BTK degradation” value (BTK; after steady state Cycle 1 Day 15, prior to starting Cycle 2) was “sustained through Cycle 1 Day 29”. For the same molecule, the “level of BTK protein in circulating B cells (BTK MFI)” value (BTK; all patients treated, once daily oral regimen) was “dramatically decreases the level of BTK protein in all patients treated; also recorded: time-dependent decrease of BTK levels”, the “% BTK Degraded, Day 2, Average” value (BTK; [3]) was 56.5% and the “% BTK Degraded, Day 8, Average” value (BTK; [3]) was 80.4%. For the same molecule, the “% BTK Degraded, Day 22, Average” value (BTK; [4]) was 92.1%, the “% BTK Degraded, Day 29, Average” value (BTK; [4]) was 90.1% and the “% BTK Degraded, Day 15, Average” value (BTK; average of patients with data (100 mg and 200 mg), steady state Cycle 1 Day 15) was 90.1%. For the same molecule, the “BTK Degradation, Day 2” value (BTK; [5]) was 62.8%, the “BTK Degradation, Day 8” value (BTK; [5]) was 76.9% and the “BTK Degradation, Day 15” value (BTK; [5]) was 78.0%. For the same molecule, the “BTK Degradation, Day 22” value (BTK; [5]) was 85.5%, the “BTK Degradation, Day 29” value (BTK; [5]) was 82.0% and the “BTK Degradation, Day 56” value (BTK; [5]) was 81.4%. For the same molecule, the “BTK Degradation, Avg. Steady State” value (BTK; patient 1 (CLL), 100 mg once daily oral, average of Days 15, 22 and 29) was 81.8%, the “BTK Degradation, Day 2” value (BTK; [6]) was 75.1% and the “BTK Degradation, Day 8” value (BTK; [6]) was 90.5%. The “BTK Degradation, Day 15” value (BTK; [6]) was 96.1%, the “BTK Degradation, Day 22” value (BTK; [6]) was 95.4% and the “BTK Degradation, Day 29” value (BTK; [6]) was 96.1%. The “BTK Degradation, Day 56” value (BTK; [6]) was 96.0%, the “BTK Degradation, Avg. Steady State” value (BTK; patient 2 (CLL), 200 mg once daily oral, average of Days 15, 22 and 29) was 95.9% and the “BTK Degradation, Day 2” value (BTK; [7]) was 74.0%. The “BTK Degradation, Day 8” value (BTK; [7]) was 92.7%, the “BTK Degradation, Day 15” value (BTK; [7]) was 94.6% and the “BTK Degradation, Day 22” value (BTK; [7]) was 95.4%. For the same molecule, the “BTK Degradation, Day 29” value (BTK; [7]) was 92.3%, the “BTK Degradation, Day 56” value (BTK; [7]) was 94.7% and the “BTK Degradation, Avg. Steady State” value (BTK; patient 3 (MCL), 200 mg once daily oral, average of Days 15, 22 and 29) was 94.1%. For the same molecule, the “BTK Degradation, Day 2” value (BTK; [8]) was 63.6%, the “BTK Degradation, Day 8” value (BTK; [8]) was 56.8% and the “BTK Degradation, Day 15” value (BTK; [8]) was 91.5%. For the same molecule, the “BTK Degradation, Avg. Steady State” value (BTK; patient 4 (WM), 200 mg once daily oral, only Day 15 available) was 91.5%, the “BTK Degradation, Day 2” value (BTK; [9]) was 6.9% and the “BTK Degradation, Day 8” value (BTK; [9]) was 85.1%. For the same molecule, the “BTK degradation at 24 hours after the initial dose” value (BTK; patients 1, 2, 3 and 4, 100 mg or 200 mg) was 62.8-75.1%, the “BTK degradation at steady state” value (BTK; the 100 mg patient) was “greater than 80%” and the Aiolos degradation (Aiolos) was “degraded”. For the same molecule, the “Deauville five-point scale (5PS)” value ([1]; DLBCL patient, 16-week assessment, 5 at screening) was 2, the “maximum standard uptake value (Max SUV)” value ([1]; DLBCL patient, 16-week assessment, 17.6 at screening) was 2.5 and the “response per Lugano criteria at 8 weeks” value ([1]; heavily pre-treated non-GCB (ABC subtype) DLBCL patient) was “complete response”. For the same molecule, the “response at the 16-week assessment (FDG-PET CT Scan Disease Assessment)” value ([1]; non-GCB (ABC subtype) DLBCL patient, FIG. 9) was “complete confirmed response” and the “killing of lymphoma cells” value [2] was “kills lymphoma cells harboring BTK-C481S mutation”.
